Experimental data published in patent US11744819B2, “Antibiotic cannabinoid-terpene formulations” (priority 2019, dated 2023).
Converted amounts (≈) assume the structure as drawn. “And” between values parts separate entries of the source, which are not always exact repeats. Equal values may be shown once. Read-outs that look alike come from different tables or passages of the source.

How the values were obtained:
[1] = tested on: E. faecium 3303; assay: microbe, parasite or virus in culture; type: cell-based, Enterococcus faecium; settings: for MIC Alone / MIC In combination / Max. fold change in MIC: E. faecium 3303; for MIC Alone: compound alone in checkerboard; for Max. fold change in MIC: decrease; for activities of the terpene with CBC, CBO, or CBG: terpene-cannabinoid combinations
Text: In therapeutic applications, synergy between active ingredients occurs when an observed combined therapeutic effect is greater than the sum of therapeutic effects of individual active ingredients, or a new therapeutic effect is produced that the active ingredients could not produce alone. […] In this context, the enhancement of therapeutic effect may take the form of increased efficacy or potency and/or decreased adverse effects. The synergistic effect may be mediated in whole or in part by the pharmacokinetics and/or pharmacodynamics of the active ingredients in a subject, so that the amount and proportion of the ingredients in the formulation may be synergistic in vivo. This in vivo synergy may be effected with a formulation that includes the active ingredients in amounts and proportions that are also synergistic in in vitro assays of efficacy. As used herein, the term “synergistically effective amounts” accordingly refers to amounts that are synergistic in vivo and/or in vitro. A numeric quantification of synergy is often expressed as a fractional inhibitory concentration index (FICI), which represents the sum of the fractional inhibitory concentrations (FICs) of each drug tested, where the FIC is determined for each drug by dividing the minimum inhibitory concentration (MIC, the lowest concentration of the drug which prevents visible growth of the bacterium in a standard in vitro assay-standard colorometric assay based on resazurin) of each drug when used in combination by the MIC of each drug when used alone. In very general terms, a FICI lower or higher than 1 indicates positively correlated activity (at least additive or potentiation) or an absence of positive interactions, respectively. More definitively, synergy of two compounds may be conservatively defined as a FICI of ::::0.5 (see Odds, 2003; with additivity or potentiation corresponding to a FICI of >0.5 to ::::0.75; no interaction (indifference) corresponding to a FICI of >1 to ::::4; and antagonism corresponding to a FICI of >>4). Synergy of three compounds has been defined as a FICI of ::::1.0. (Berenbaum, 1978; Yu et al., 1980). To estimate the optimal concentrations in triple combinations, the optimal concentrations of trans-caryophyllene and cannabinoid were utilized in combination with a series of daptomycin dilutions.
(§1) Pre-cultures of bacteria growing in their corresponding liquid media (defined below) were diluted to an 00600 of 0.0025 and 100 μl was added to 100 μl of medium containing serial 2-fold dilutions of cannabinoid (cannabinoid stocks, in methanol or acetonitrile for acidic forms, were diluted in growth medium) in 96-well plates. Plates were then incubated for 20-24 h at 37° C., and growth was recorded as 00600 in a Thermo Scientific™ Varioskan™ Flash Multimode Reader.
Method for Tables 4-7. Interaction of Cannabinoids CBC, CBD and CBG with Terpenes and Daptomycin:
(§2) FICI values was determined in a 96 well checkerboard format using the MIC assay for cannabinoids (compound A), terpenes (compound B), and daptomycin (compound C) alone and in combinations. Terpene stocks were prepared in DMSO and diluted in the growth medium. The fractional inhibitory concentration for each compound was calculated as follows: FICA=(MIC of compound A in the presence of compound B)/(MIC of compound A alone). Similarly, the FICs for compounds Band C were calculated. The FICI was calculated as FICA plus FICs plus FICc.

[2] = tested on: E. faecium VRE 55A6; assay: microbe, parasite or virus in culture; type: cell-based, Enterococcus faecium; settings: E. faecium VRE 55A6
Text: In therapeutic applications, synergy between active ingredients occurs when an observed combined therapeutic effect is greater than the sum of therapeutic effects of individual active ingredients, or a new therapeutic effect is produced that the active ingredients could not produce alone. […] In this context, the enhancement of therapeutic effect may take the form of increased efficacy or potency and/or decreased adverse effects. The synergistic effect may be mediated in whole or in part by the pharmacokinetics and/or pharmacodynamics of the active ingredients in a subject, so that the amount and proportion of the ingredients in the formulation may be synergistic in vivo. This in vivo synergy may be effected with a formulation that includes the active ingredients in amounts and proportions that are also synergistic in in vitro assays of efficacy. As used herein, the term “synergistically effective amounts” accordingly refers to amounts that are synergistic in vivo and/or in vitro. A numeric quantification of synergy is often expressed as a fractional inhibitory concentration index (FICI), which represents the sum of the fractional inhibitory concentrations (FICs) of each drug tested, where the FIC is determined for each drug by dividing the minimum inhibitory concentration (MIC, the lowest concentration of the drug which prevents visible growth of the bacterium in a standard in vitro assay-standard colorometric assay based on resazurin) of each drug when used in combination by the MIC of each drug when used alone. In very general terms, a FICI lower or higher than 1 indicates positively correlated activity (at least additive or potentiation) or an absence of positive interactions, respectively. More definitively, synergy of two compounds may be conservatively defined as a FICI of ::::0.5 (see Odds, 2003; with additivity or potentiation corresponding to a FICI of >0.5 to ::::0.75; no interaction (indifference) corresponding to a FICI of >1 to ::::4; and antagonism corresponding to a FICI of >>4). […] (Berenbaum, 1978; Yu et al., 1980). To estimate the optimal concentrations in triple combinations, the optimal concentrations of trans-caryophyllene and cannabinoid were utilized in combination with a series of daptomycin dilutions.
as §1, §2

[3] = tested on: E. faecium clinical isolate 69C6 (vancomycin resistant); settings: clinical enterococcal strain 69C6, vancomycin resistant
[4] = tested on: Staphylococcus aureus MRSA; assay: microbe, parasite or virus in culture; type: cell-based
[5] = tested on: E. faecium clinical isolate 58C9 (vancomycin and daptomycin resistant); settings: clinical enterococcal strain 58C9, vancomycin and daptomycin resistant
[6] = tested on: Enterococcus faecium 33D3
[7] = tested on: Streptococcus pyogenes ATCC 51878; assay: MIC determination; type: cell-based; settings: Streptococcus pyogenes, ATCC51878
[8] = tested on: Mycobacterium tuberculosis H37Rv; assay: MIC determination (PrestoBlue); type: cell-based
[9] = tested on: E. faecium clinical isolate 55A6 (vancomycin and daptomycin resistant); settings: clinical enterococcal strain 55A6, vancomycin and daptomycin resistant
[10] = tested on: Mycobacterium abscessus ATCC 19977; assay: MIC determination (resazurin); type: cell-based
[11] = tested on: Staphylococcus epidermidis ATCC 14990; assay: MIC determination; type: cell-based; settings: Staphylococcus epidermidis, ATCC14990
[12] = tested on: Enterococcus faecalis; assay: MIC determination; type: cell-based
[13] = tested on: Staphylococcus epidermidis ATCC 12228; assay: MIC determination; type: cell-based; settings: Staphylococcus epidermidis, ATCC12228
[14] = tested on: E. faecium clinical isolate 55A6 (vancomycin and daptomycin resistant); assay: microbe, parasite or virus in culture; settings: Enterococcus faecium
[15] = tested on: E. faecium clinical isolate 69C6 (vancomycin resistant); assay: microbe, parasite or virus in culture; settings: Enterococcus faecium
[16] = tested on: Enterococcus faecium 33D3; assay: microbe, parasite or virus in culture
[17] = tested on: E. faecium clinical isolate 58C9 (vancomycin and daptomycin resistant); assay: microbe, parasite or virus in culture; settings: Enterococcus faecium
[18] = triple, with daptomycin and CBC
[19] = triple, with daptomycin and CBD
[20] = triple, with daptomycin and CBG
[21] = Mycobacterium tuberculosis, H37RV, Media 7H9, read-out: MIC
[22] = Mycobacterium tuberculosis, H37RV, Media PB, read-out: MIC
[23] = 33D3, Enterococcus faecium 33D3 (Table 1)
[24] = 33D3, clinical enterococcal strain 3303
[25] = Mycobacteroides abscessus, ATCC19977

## C=C1CC/C=C(\C)CC[C@@H]2[C@@H]1CC2(C)C (relative stereo) [Trans-caryophyllene, trans-caryophyllene]
[1]
  MIC Alone: >16 µg/mL and 16 µg/mL
  activities of the terpene with CBC, CBO, or CBG: synergistic activities
[1]; listed as Tram-caryophyllene
  MIC Alone: 32 µg/mL
[1]; pairwise, with CBC
  MIC In combination: 0.25 µg/mL
  Max. fold change in MIC: 64 l fold
[1]; pairwise, with CBD
  MIC In combination: 2 µg/mL
[1]; pairwise, with CBG
  MIC In combination: 4 µg/mL
  Max. fold change in MIC: 8″′ fold
[1]; pairwise, with daptomycin
  MIC In combination: 4 µg/mL
  Max. fold change in MIC: >4 l fold and >4″′ fold
[1]; [18]
  MIC In combination: 2 µg/mL
  Max. fold change in MIC: 8 l fold
[1]; [19]
  MIC In combination: 2 µg/mL
  Max. fold change in MIC: 8 fold
[1]; [20]
  MIC In combination: 1 µg/mL
  Max. fold change in MIC: 16 fold
[2]; pairwise, with CBC
  MIC In combination: 1 µg/mL
  Max. fold change in MIC: >32 fold
[2]; pairwise, with CBD
  MIC In combination: 8 µg/mL
  Max. fold change in MIC: >4 fold
[2]; pairwise, with CBG
  MIC In combination: >32 µg/mL
  Max. fold change in MIC: none
[2]; pairwise, with daptomycin
  MIC In combination: 2 µg/mL
  Max. fold change in MIC: >8 fold
[2]; [18]
  MIC In combination: 2 µg/mL
  Max. fold change in MIC: > 32 fold
[2]; [19]
  MIC In combination: 2 µg/mL
  Max. fold change in MIC: > 32 fold
[2]; [20]
  MIC In combination: 2 µg/mL
  Max. fold change in MIC: > 32 fold

## CCCCCc1cc2c(c(O)c1C(=O)O)C=CC(C)(CCC=C(C)C)O2 (stereo not shown) [CBCA, cannabichromic acid]
[3]
  MIC: 4 µg/mL (≈ 11.2 µM)
[4]
  MIC: 4 µg/mL (≈ 11.2 µM)
[5]
  MIC: 4 µg/mL (≈ 11.2 µM)
[6]; Enterococcus faecium 33D3 (Table 1)
  MIC: 4 µg/mL (≈ 11.2 µM)
[6]; clinical enterococcal strain 3303
  MIC: 4 µg/mL (≈ 11.2 µM)
[7]
  MIC: 0.5 to 1 µg/mL
[8]; Media 7H9
  MIC: 2 µg/mL (≈ 5.58 µM)
[8]; Media PB
  MIC: 4 µg/mL (≈ 11.2 µM)
[9]
  MIC: 2 µg/mL (≈ 5.58 µM)
[10]; Mycobacterium abscessus ATCC 19977
  MIC: 4 µg/mL (≈ 11.2 µM)
[11]
  MIC: 2 µg/mL (≈ 5.58 µM)
[12]
  MIC: 4 µg/mL (≈ 11.2 µM)
[13]
  MIC: 2 µg/mL (≈ 5.58 µM)

## C=C(C)[C@@H]1CCC(C)=C[C@H]1c1c(O)cc(CCCCC)c(C(=O)O)c1O [CBDA, cannabidiolic acid]
[4]
  MIC: 16 µg/mL (≈ 44.6 µM)
[14]
  MIC: 16 µg/mL (≈ 44.6 µM)
[7]
  MIC: 8 µg/mL (≈ 22.3 µM)
[15]
  MIC: 16 µg/mL (≈ 44.6 µM)
[8]; [21]
  MIC: 2 µg/mL (≈ 5.58 µM)
[8]; [22]
  MIC: 4 µg/mL (≈ 11.2 µM)
[16]; [23]
  MIC: 16 µg/mL (≈ 44.6 µM)
[16]; [24]
  MIC: 16 µg/mL (≈ 44.6 µM)
[17]
  MIC: 16 µg/mL (≈ 44.6 µM)
[10]; [25]
  MIC: 32 µg/mL (≈ 89.3 µM)
[11]
  MIC: 4 µg/mL (≈ 11.2 µM)
[12]
  MIC: 16 µg/mL (≈ 44.6 µM)
[13]
  MIC: 4 µg/mL (≈ 11.2 µM)

## CCCCCc1cc(O)c(C/C=C(\C)CCC=C(C)C)c(O)c1C(=O)O [CBGA, cannabigerolic acid]
[4]
  MIC: 1 µg/mL (≈ 2.77 µM)
[14]
  MIC: 8 µg/mL (≈ 22.2 µM)
[7]
  MIC: 2 µg/mL (≈ 5.55 µM)
[15]
  MIC: 8 µg/mL (≈ 22.2 µM)
[8]; [21]
  MIC: 4 µg/mL (≈ 11.1 µM)
[8]; [22]
  MIC: 2 µg/mL (≈ 5.55 µM)
[16]; [23]
  MIC: 16 µg/mL (≈ 44.4 µM)
[16]; [24]
  MIC: 16 µg/mL (≈ 44.4 µM)
[17]
  MIC: 16 µg/mL (≈ 44.4 µM)
[10]; [25]
  MIC: 16 µg/mL (≈ 44.4 µM)
[11]
  MIC: 2 µg/mL (≈ 5.55 µM)
[12]
  MIC: 8 µg/mL (≈ 22.2 µM)
[13]
  MIC: 2 µg/mL (≈ 5.55 µM)

## C/C1=C\CC/C(C)=C/CC(C)(C)/C=C/C1 [a-humulene]
[1]
  activities of the terpene with CBC, CBO, or CBG: synergistic activities
